# According to US4185015A, “Methoxymethyl 6-[D-2,2-dimethyl-4-(4-hydroxyphenyl)-5-oxo-1-imidazolyl]penicillanate” (priority 1977, dated 1980):
# Read-outs that look alike come from different tables or passages of the source.
# Key:
# Str. pneumoniae = test: MIC in Nutrient Broth (Table III); assay type: cell-based; conditions: Streptococcus pneumoniae, 10^-3 dilution of overnight broth culture, 45% AAB, 5% serum, 50% broth
# Excerpt: (§1) Organism in Nutrient Broth
# (§2) *45% AAB 5% serum 50% broth listed above,
# (§3) **Dilution of overnight broth culture
# Str. pyogenes [1] = test: MIC in Nutrient Broth (Table III); assay type: cell-based; conditions: Streptococcus pyogenes, 10^-3 dilution of overnight broth culture, 45% AAB, 5% serum, 50% broth
# Excerpt: as §1, §2, §3
# E. coli Juhl [2] = test: MIC in Nutrient Broth (Table III); assay type: cell-based; conditions: Escherichia coli; E. coli Juhl (10^-4)
# Excerpt: as §1, §3
# E. coli [3] = test: MIC in Nutrient Broth (Table III); assay type: cell-based; conditions: Escherichia coli; E. coli (10^-4)
# Excerpt: as §1, §3
# Ent. cloacae = test: MIC in Nutrient Broth (Table III); assay type: cell-based; conditions: Enterobacter cloacae, Ent. cloacae (10^-4)
# Excerpt: as §1, §3
# K. pneumoniae [4] = test: MIC in Nutrient Broth (Table III); assay type: cell-based; conditions: Klebsiella pneumoniae
# Excerpt: as §1, §3
# Pr. mirabilis [5] = test: MIC in Nutrient Broth (Table III); assay type: cell-based; conditions: Proteus mirabilis; Pr. mirabilis (10^-4)
# Excerpt: as §1, §3
# Pr. morganii [6] = test: MIC in Nutrient Broth (Table III); assay type: cell-based; conditions: Morganella morganii
# Excerpt: as §1, §3
# Ps. aeruginosa [7] = test: MIC in Nutrient Broth (Table III); assay type: cell-based; conditions: Pseudomonas aeruginosa
# Excerpt: as §1, §3
# S. aureus BX1633 [8] = test: MIC in Nutrient Broth (Table III); assay type: cell-based; conditions: Staphylococcus aureus
# Excerpt: as §1, §3
# S. aureus Meth.-Res. = test: MIC in Nutrient Broth (Table III); assay type: cell-based; conditions: Staphylococcus aureus, S. aureus Meth.-Res. (10^-3), read-out: MIC
# Excerpt: as §1, §3
# S. aureus Smith [9] = test: MIC in Nutrient Broth (Table III); assay type: cell-based; conditions: Staphylococcus aureus, S. aureus Smith (10^-4)
# Excerpt: as §1, §3
# Sal. enteritidis [10] = test: MIC in Nutrient Broth (Table III); assay type: cell-based; conditions: Salmonella enterica; Sal. enteritidis (10^-4)
# Excerpt: as §1, §3
# Ser. marcescens [11] = test: MIC in Nutrient Broth (Table III); assay type: cell-based; conditions: Serratia marcescens; Ser. marcescens (10^-4)
# Excerpt: as §1, §3
# [12] = in vivo, po
# Experimental: Only the latter are biologically active per se. Also, both original ester and parent penicillin were measured.
# in vivo = test: in vivo; design: species or system mice; conditions: mouse, po, 50 mg/kg
# D. pneumoniae = test: MIC against various organisms (Table I); assay type: cell-based; conditions: Streptococcus pneumoniae; D. pneumoniae + 5% serum; read-out: minimum inhibitory concentration
# Str. pyogenes [13] = test: MIC against various organisms (Table I); assay type: cell-based; conditions: Streptococcus pyogenes; Str. pyogenes + 5% serum; read-out: minimum inhibitory concentration
# S. aureus Smith [14] = test: MIC against various organisms (Table I); assay type: cell-based; conditions: Staphylococcus aureus, read-out: minimum inhibitory concentration
# S. aureus BX1633 [15] = test: MIC against various organisms (Table I); assay type: cell-based; conditions: Staphylococcus aureus
# S. aureus = test: MIC against various organisms (Table I); assay type: cell-based; conditions: Staphylococcus aureus, read-out: minimum inhibitory concentration
# Sal. enteritidis [16] = test: MIC against various organisms (Table I); assay type: cell-based; conditions: Salmonella enterica, read-out: minimum inhibitory concentration
# E. coli Juhl [17] = test: MIC against various organisms (Table I); assay type: cell-based; conditions: Escherichia coli, read-out: minimum inhibitory concentration
# E. coli [18] = test: MIC against various organisms (Table I); assay type: cell-based; conditions: Escherichia coli, read-out: minimum inhibitory concentration
# K. pneumoniae [19] = test: MIC against various organisms (Table I); assay type: cell-based; conditions: Klebsiella pneumoniae, read-out: minimum inhibitory concentration
# Pr. mirabilis [20] = test: MIC against various organisms (Table I); assay type: cell-based; conditions: Proteus mirabilis, read-out: minimum inhibitory concentration
# Pr. morganii [21] = test: MIC against various organisms (Table I); assay type: cell-based; conditions: Morganella morganii, read-out: minimum inhibitory concentration
# Ps. aeruginosa [22] = test: MIC against various organisms (Table I); assay type: cell-based; conditions: Pseudomonas aeruginosa, read-out: minimum inhibitory concentration
# Ser. marcescens [23] = test: MIC against various organisms (Table I); assay type: cell-based; conditions: Serratia marcescens, read-out: minimum inhibitory concentration
smiles,measurement,setting,value
CC1(C)S[C@@H]2[C@H](NC(=O)[C@H](N)c3ccc(O)cc3)C(=O)N2[C@H]1C(=O)O [Amoxicillin Trihydrate],MIC,Str. pneumoniae,0.016 µg/mL
same,MIC,Str. pyogenes [1],0.016 µg/mL
same,MIC,E. coli Juhl [2],1 µg/mL
same,MIC,E. coli [3],16 µg/mL
same,MIC,Ent. cloacae; first of three lines,> 125 µg/mL
same,MIC,"Ent. cloacae; second of three lines, read-out: MIC",63 µg/mL
same,MIC,Ent. cloacae; third of three lines,125 µg/mL
same,MIC,K. pneumoniae [4],> 125 µg/mL
same,MIC,"K. pneumoniae [4]; K. pneumoniae (10^-4), first of two lines, read-out: MIC",0.25 µg/mL
same,MIC,Pr. mirabilis [5],0.25 µg/mL
same,MIC,Pr. morganii [6],> 125 µg/mL
same,MIC,Ps. aeruginosa [7],> 125 µg/mL
same,MIC,S. aureus BX1633 [8]; BX1633,> 125 µg/mL
same,MIC,"S. aureus BX1633 [8]; BX1633, S. aureus BX1633 (10^-3), read-out: MIC",16 µg/mL
same,MIC,S. aureus Meth.-Res.; 28° C.,32 µg/mL
same,MIC,S. aureus Meth.-Res.; 37° C.,63 µg/mL
same,MIC,S. aureus Smith [9],0.13 µg/mL
same,MIC,Sal. enteritidis [10],0.25 µg/mL
same,MIC,Ser. marcescens [11],32 µg/mL
"COCOC(=O)[C@@H]1N2C(=O)[C@@H](N3C(=O)[C@@H](c4ccccc4)NC3(C)C)[C@H]2SC1(C)C [BL-P1761, methoxymethyl ester of hetacillin]",hydrolysis of the ester,[12],hydrolyze eventually to their parent penicillins
"CC1(C)S[C@@H]2[C@H](N3C(=O)[C@@H](c4ccccc4)NC3(C)C)C(=O)N2[C@H]1C(=O)O [Compound 3, D-6-(2,2-dimethyl-5-oxo-4-phenyl-1-imidazolidinyl)penicillanic acid]",concentration at 0.5 h,in vivo,2000 ng/mL
same,concentration at 2 h,in vivo,1100 ng/mL
same,concentration at 3.5 h,in vivo,500 ng/mL
"CC1(C)S[C@@H]2[C@H](NC(=O)[C@H](N)c3ccccc3)C(=O)N2[C@H]1C(=O)O [Cpd. A, ampicillin]",MIC,D. pneumoniae,4 ng/mL
same,MIC,Str. pyogenes [13],4 ng/mL
same,MIC,S. aureus Smith [14]; S. aureus Smith + 50% serum,0.06 µg/mL
same,MIC,S. aureus Smith [14]; S. aureus Smith,0.03 µg/mL
same,MIC,"S. aureus BX1633 [15]; BX1633, read-out: minimum inhibitory concentration, S. aureus BX1633, first of two lines",125 µg/mL
same,MIC,"S. aureus BX1633 [15]; BX1633, read-out: minimum inhibitory concentration, S. aureus BX1633, second of two lines",> 125 µg/mL
same,MIC,S. aureus; first of three lines,125 µg/mL
same,MIC,S. aureus; second of three lines,125 µg/mL
same,MIC,S. aureus; third of three lines,> 125 µg/mL
same,MIC,Sal. enteritidis [16],0.13 µg/mL
same,MIC,E. coli Juhl [17],1 µg/mL
same,MIC,E. coli [18],32 µg/mL
same,MIC,"K. pneumoniae [19]; K. pneumoniae, first of two lines",0.3 µg/mL
same,MIC,K. pneumoniae [19],125 µg/mL
same,MIC,Pr. mirabilis [20],0.16 µg/mL
same,MIC,Pr. morganii [21],> 125 µg/mL
same,MIC,Ps. aeruginosa [22],> 125 µg/mL
same,MIC,Ser. marcescens [23],32 µg/mL
same,concentration at 0.5 h,in vivo,3300 ng/mL
same,concentration at 1 h,in vivo,2100 ng/mL
same,concentration at 2 h,in vivo,900 ng/mL
same,concentration at 3.5 h,in vivo,500 ng/mL
